Entries after “also recorded” stand apart in the source; their conditions may differ.
Tests used:
[1] = test system: patients with diabetic peripheral neuropathy; details: SPI-62 without prednisolone, at 6 weeks, prior trials; cited from earlier work
[2] = test system: patients with polymyalgia rheumatica (PMR); experiment: Clinical trial in PMR: assessment of prednisolone toxicity (bone turnover, lipids, glycemic control, coagulation, ECG heart rate, HPA axis); format: in vivo, human
Experimental: (§1) In an ongoing clinical trial, patients with polymyalgia rheumatica (PMR), who receive prednisolone 10 mg daily for at least 7 days prior to Day 1, are in remission or have low disease activity, and who meet the inclusion and exclusion criteria (Table 1), enter a 4-week treatment period.
(§2) From Day 1 to Week 2, participants continue to receive prednisolone 10 mg and placebo for SPI-62, each daily. From Week 2 to Week 4, participants receive prednisolone, at a dose or randomized doses assigned per cohort, and SPI-62 6 mg, each daily. The order of treatments are not randomized due to the long pharmacological half-life of SPI-62, which is understood to be approximately 4-6 weeks based on data collected up to 2-2.5 weeks after cessation of SPI-62 administration in prior clinical trials. Participants are blinded to the order of treatments. Participants are enrolled in cohorts of approximately 12. • During Cohort 1, 12 participants received prednisolone 10 mg with SPI-62 6 mg. Two participants were erroneously dosed with SPI-62 on Day 1. […] Two participants' prednisolone dose was increased to 15 mg prior to Week 4 following adverse events of PMVR aggravated. Those two participants' data are represented in the Figures in the PRL15 CLO6 regimen. […] Those two participants' data are represented in the Figures only in the PRL10 regimen. • During Cohort 2, 12 participants received prednisolone 15 mg (50% dose adjustment) with SPI-62 6 mg. All also received prednisolone 10 mg with placebo for SPI-62. • During Cohort 3, 11 participants received prednisolone 20 mg (100% dose adjustment from Cohort 1) with clofutriben (i.e., SPI-62) 6 mg. All also received prednisolone 10 mg with placebo for SPI-62. […] That participant's data are represented in the Figures in the PRL10 and PRL10 CLO6 regimens. • During Cohort 4, 11 participants received prednisolone 30 mg (100% dose adjustment from Cohort 2) with clofutriben (i.e., SPI-62) 6 mg. • Two additional participants dropped out of the trial before they received clofutriben. Those participants' data are represented in the Figures in the PRL10 regimen.
FIGS. 1-26 compare the change from baseline during two weeks of treatment with 10 mg prednisolone and placebo (PRL 10), 10 mg prednisolone and 6 mg clofutriben (PRL10 CLO6), 15 mg prednisolone and 6 mg clofutriben (PRL15 CLO6), 20 mg prednisolone and 6 mg clofutriben (PRL20 CLO6), and 30 mg prednisolone and 6 mg clofutriben (PRL30 CLO6). The central horizontal line of each diamond represents the mean of the observed data. The top and bottom vertices represent the 95% confidence interval of the mean. The top and bottom ‘overlap lines’ would indicate statistically significant difference between groups under assumptions of normal data distribution, equal variances, and lack of covariance with baseline value. As one or more of those assumptions is violated for many of the datasets, statistical significance should not be inferred based on the overlap lines in FIGS. 1-26.
Assessment of prednisolone toxicity focused first on bone turnover biomarkers, which were expected to be the most sensitive based on published evidence of substantial changes within a few days of glucocorticoid administration that correlated with hepatic HSD-1 activity. SPI-62 was associated with changes consistent with an anti-GIOP phenotype, i.e., increases of the bone formation biomarkers OC and P1NP (FIG. 12), and decreases of the bone resorption biomarker CTX (FIG. 13).
Whether GC-associated HDL increase should be considered GC toxicity is not clear. […] About half of the participants (represented by colored circles) were on cholesterol-lowering agents, while no participants received any additional triglyceride lowering agents. The improvements in cholesterol were attributed mainly to a decrease in HDL, representing a reversal of the HDL-increasing effect of GC by clofutriben. […]

[3] = Prior clinical trials of SPI-62 (without glucocorticoids); details: human, in vivo; based on data collected up to 2-2.5 weeks after cessation of SPI-62 administration in prior clinical trials; read-out: pharmacological half-life
Experimental: From Day 1 to Week 2, participants continue to receive prednisolone 10 mg and placebo for SPI-62, each daily. From Week 2 to Week 4, participants receive prednisolone, at a dose or randomized doses assigned per cohort, and SPI-62 6 mg, each daily. The order of treatments are not randomized due to the long pharmacological half-life of SPI-62, which is understood to be approximately 4-6 weeks based on data collected up to 2-2.5 weeks after cessation of SPI-62 administration in prior clinical trials. Participants are blinded to the order of treatments. Participants are enrolled in cohorts of approximately 12. • During Cohort 1, 12 participants received prednisolone 10 mg with SPI-62 6 mg. Two participants were erroneously dosed with SPI-62 on Day 1. […] Two participants' prednisolone dose was increased to 15 mg prior to Week 4 following adverse events of PMVR aggravated. Those two participants' data are represented in the Figures in the PRL15 CLO6 regimen. […] Those two participants' data are represented in the Figures only in the PRL10 regimen. • During Cohort 2, 12 participants received prednisolone 15 mg (50% dose adjustment) with SPI-62 6 mg. All also received prednisolone 10 mg with placebo for SPI-62. • During Cohort 3, 11 participants received prednisolone 20 mg (100% dose adjustment from Cohort 1) with clofutriben (i.e., SPI-62) 6 mg. […]

[4] = prior trials, participants did not receive GCs; cited from earlier work
[5] = test system: patients with polymyalgia rheumatica (PMR); experiment: Clinical trial in PMR: circulating cell counts (lymphoid lineages by quantitative PCR; monocytes, neutrophils, platelets); format: in vivo, human
Experimental: as §1, §2
FIGS. 1-26 compare the change from baseline during two weeks of treatment with 10 mg prednisolone and placebo (PRL 10), 10 mg prednisolone and 6 mg clofutriben (PRL10 CLO6), 15 mg prednisolone and 6 mg clofutriben (PRL15 CLO6), 20 mg prednisolone and 6 mg clofutriben (PRL20 CLO6), and 30 mg prednisolone and 6 mg clofutriben (PRL30 CLO6). The central horizontal line of each diamond represents the mean of the observed data. The top and bottom vertices represent the 95% confidence interval of the mean. […]
Counts of several circulating lymphoid cell types were determined by quantitative PCR for lineage-specific DNA methylation patterns. […]

[6] = test system: patients with polymyalgia rheumatica (PMR); experiment: Clinical trial in PMR: 13-plex cytokine panel; format: in vivo, human; details: SPI-62 6 mg co-administered with prednisolone; 2 weeks
Experimental: as §1
From Day 1 to Week 2, participants continue to receive prednisolone 10 mg and placebo for SPI-62, each daily. From Week 2 to Week 4, participants receive prednisolone, at a dose or randomized doses assigned per cohort, and SPI-62 6 mg, each daily. The order of treatments are not randomized due to the long pharmacological half-life of SPI-62, which is understood to be approximately 4-6 weeks based on data collected up to 2-2.5 weeks after cessation of SPI-62 administration in prior clinical trials. Participants are blinded to the order of treatments. Participants are enrolled in cohorts of approximately 12. • During Cohort 1, 12 participants received prednisolone 10 mg with SPI-62 6 mg. Two participants were erroneously dosed with SPI-62 on Day 1. […] Two participants' prednisolone dose was increased to 15 mg prior to Week 4 following adverse events of PMVR aggravated. Those two participants' data are represented in the Figures in the PRL15 CLO6 regimen. […] Those two participants' data are represented in the Figures only in the PRL10 regimen. • During Cohort 2, 12 participants received prednisolone 15 mg (50% dose adjustment) with SPI-62 6 mg. All also received prednisolone 10 mg with placebo for SPI-62. • During Cohort 3, 11 participants received prednisolone 20 mg (100% dose adjustment from Cohort 1) with clofutriben (i.e., SPI-62) 6 mg. All also received prednisolone 10 mg with placebo for SPI-62. […] That participant's data are represented in the Figures in the PRL10 and PRL10 CLO6 regimens. • During Cohort 4, 11 participants received prednisolone 30 mg (100% dose adjustment from Cohort 2) with clofutriben (i.e., SPI-62) 6 mg. • Two additional participants dropped out of the trial before they received clofutriben. Those participants' data are represented in the Figures in the PRL10 regimen. […]

[7] = test system: patients with polymyalgia rheumatica (PMR); experiment: Clinical trial in PMR: acute phase markers CRP, ESR, fibrinogen; format: in vivo, human; details: change from baseline after 2 weeks daily treatment
Experimental: as §1
(§3) From Day 1 to Week 2, participants continue to receive prednisolone 10 mg and placebo for SPI-62, each daily. From Week 2 to Week 4, participants receive prednisolone, at a dose or randomized doses assigned per cohort, and SPI-62 6 mg, each daily. The order of treatments are not randomized due to the long pharmacological half-life of SPI-62, which is understood to be approximately 4-6 weeks based on data collected up to 2-2.5 weeks after cessation of SPI-62 administration in prior clinical trials. Participants are blinded to the order of treatments. Participants are enrolled in cohorts of approximately 12. • During Cohort 1, 12 participants received prednisolone 10 mg with SPI-62 6 mg. Two participants were erroneously dosed with SPI-62 on Day 1. […] Two participants' prednisolone dose was increased to 15 mg prior to Week 4 following adverse events of PMVR aggravated. […]
Criterion 2—Acute phase markers C-reactive protein (CRP) and erythrocyte sedimentation rate (ESR), which are standard parameters clinicians use to quantitate systemic inflammation in PMR. […]

hepatic HSD-1 = target: T1, hepatic HSD-1 (Homo sapiens, UniProt P28845); experiment: Urinary ratio (tetrahydrocortisol+allotetrahydrocortisol)/tetrahydrocortisone, biomarker of hepatic HSD-1 activity; format: in vivo
T1 construct: confirm the pharmacological effect of SPI-62 on hepatic HSD-1 activity; from tissue; host or cells: liver (hepatocytes) of trial subjects, in vivo; read out through urinary steroid metabolites
T1 sequence (P28845 whole entry): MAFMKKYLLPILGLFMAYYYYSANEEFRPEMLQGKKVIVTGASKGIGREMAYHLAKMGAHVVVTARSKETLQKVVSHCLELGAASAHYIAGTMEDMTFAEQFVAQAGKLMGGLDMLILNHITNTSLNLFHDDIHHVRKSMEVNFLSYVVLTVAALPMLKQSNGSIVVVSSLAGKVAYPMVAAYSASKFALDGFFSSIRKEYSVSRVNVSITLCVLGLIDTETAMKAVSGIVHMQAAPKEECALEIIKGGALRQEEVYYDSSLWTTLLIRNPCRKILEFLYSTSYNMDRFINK
Experimental: Data from all cohorts were analyzed together to confirm the pharmacological effect of SPI-62 on hepatic HSD-1 activity. In hepatocytes, 5- and 3-steroid reductases, the latter a liver-specific enzyme, convert cortisol and cortisone to tetrahydro metabolites which are excreted in urine. The urinary ratio (tetrahydrocortisol+allotetrahydrocortisol)/tetrahydrocortisone is an accepted biomarker of hepatic HSD-1 activity. Morning spot urine samples were collected at Baseline (BL), after 2 weeks of prednisolone 10 mg treatment (PRL), after 2 weeks of prednisolone 10-30 mg+clofutriben 6 mg treatment (PRL CLO6), and after 4 weeks washout following the last clofutriben dose (WO). […] The similarity between BL and PBO is an example of the repeatability of the HSD-1 ratio in spot urine samples.

healthy adults = details: dexamethasone 3 mg, 5 days; cited from earlier work
[8] = test system: patients with polymyalgia rheumatica (PMR); experiment: Clinical trial in polymyalgia rheumatica: PMR disease control, adverse events of PMR aggravated and relapse (Criterion 1); format: in vivo, human; details: 2 weeks daily treatment
Experimental: as §1
as §3, with “aggravated. Those two participants' data are represented in the Figures in the PRL15 CLO6 regimen.” for “aggravated.”

[9] = PMR patients, change from baseline after 2 weeks daily treatment
[10] = co-administration with prednisolone at any prednisolone dose, 2 weeks
[11] = patients receiving prednisolone, relative to placebo

## Cn1c(-c2ccc(C(N)=O)cc2F)nnc1C(C)(C)Oc1c(F)cc(Cl)cc1F [SPI-62, 4-(5-(2-(4-chloro-2,6-difluorophenoxy)propan-2-yl)-4-methyl-4H-1,2,4-triazol-3-yl)-3-fluorobenzamide]
[1]
  HbA1c: clinically meaningful decrease
[2]; [9]
  HOMA-IR: not sensitive
  HbA1c: not sensitive; also recorded: close to zero
  activated partial thromboplastin time (APTT): improve
  bone formation biomarker BSAP: low sensitivity
  bone formation biomarker P1NP: increases
  bone formation biomarker osteocalcin (OC): increases
  bone resorption biomarker CTX: decreases
[2]; PMR patients, change from baseline after 2 weeks daily treatment, compared to placebo
  morning serum cortisol: increase
[2]; [10]
  Prothrombin International Normalized Ratio (INR): not observed to be sensitive
  Prothrombin Time (PT): not observed to be sensitive
[2]; patients receiving prednisolone, clofutriben compared to placebo
  plasma ACTH: increase
[2]; [11]
  DHEA-S: increase, within or close to the reference range
  testosterone: increase, within or close to the reference range
[2]; patients that received prednisolone
  hypothalamic-pituitary-adrenal (HPA) axis: de-repression
[3]
  half-life: 28 to 42 days
[4]
  effect on ECG heart rate: No effect
[5]; [9]
  monocyte count: anticipated increases
  neutrophil count: anticipated increases
  platelet count: anticipated increases
[5]; SPI-62 6 mg co-administered with prednisolone, 2 weeks
  counts of circulating lymphoid cell types (B, IL-6R+, memory B, CD3+T, Th17, Treg): decreases of all counted lineages, which were not fully ameliorated by prednisolone dose adjustment
[6]
  IL-1 receptor antagonist (IL-1RA) level: did not show sensitivity to SPI-62
  granulocyte colony stimulating factor (G-CSF) level: did not show sensitivity to SPI-62
  interferon gamma (IFNγ) level: did not show sensitivity to SPI-62
[7]
  fibrinogen (PF) level: increased
Hepatic HSD-1; 4 weeks after the last dose of SPI-62
  hepatic HSD-1 inhibition after washout: Substantial hepatic HSD-1 inhibition
Hepatic HSD-1; after 2 weeks of prednisolone 10-30 mg + clofutriben 6 mg
  hepatic HSD-1 inhibition: full hepatic HSD-1 inhibition
Hepatic HSD-1; morning spot urine after 2 weeks of prednisolone 10-30 mg + clofutriben 6 mg
  urinary ratio (tetrahydrocortisol+allotetrahydrocortisol)/tetrahydrocortisone, mean value: ≤ 0.2

## C[C@@H]1C[C@H]2[C@@H]3CCC4=CC(=O)C=C[C@]4(C)[C@@]3(F)[C@@H](O)C[C@]2(C)[C@@]1(O)C(=O)CO [dexamethasone]
Healthy adults
  ECG heart rate decrease: approximately 12 bpm
  HDL cholesterol: clinically meaningful increase
  LDL cholesterol: not particularly sensitive
  triglycerides: not particularly sensitive

## C[C@]12C=CC(=O)C=C1CC[C@@H]1[C@@H]2[C@@H](O)C[C@@]2(C)[C@H]1CC[C@]2(O)C(=O)CO [prednisolone, reference compound]
[8]; participants with event/participants
  incidence of adverse events of PMR aggravated: 0/50
[8]; participants with relapse/participants
  PMR relapse (increase of PMR symptoms or disease activity such that a prednisolone dose increase was indicated): 0/50
[2]; [9]
  HbA1c: decrease
  LDL cholesterol: encompassed zero
  cholesterol: encompassed zero
  triglycerides: encompassed zero

— patent US20260224537A1, “METHODS AND COMPOSITIONS FOR TREATING GLUCOCORTICOID-MEDIATED DISEASES” (SPARROW PHARMACEUTICALS, INC., priority 2023, published 2026)
